This is an account of results in US20230181661A1, “MUSHROOM-CONTAINING CHINESE MEDICINE COMPOUND COMPOSITION FOR KELOID SCAR TISSUE AND APPLICATION THEREOF” (ASIA UNIVERSITY, priority 2021, published 2023).

The structures appear in SMILES notation.

This experiment relates to KFS cells. Put plainly: Cell metabolic activity assay (MTT assay). The note with it: 6.25 to 100 micromolar concentration. Format: cell-based. Here is the method:
KFS cells were obtained from the Biosource Collection and Research Center (BCRC) of the Food Industry Research and Development Institute (Hsinchu, Taiwan). KFS cells were cultured in Dulbecco's modified eagle medium (DMEM) containing 10% FBS, 1.5 g/L sodium bicarbonate, 4 mM L-glutamine, 4.5 g/L glucose, 100 units/mL penicillin G, and 100 μg/mL streptomycin sulfate. All cells were incubated in a humidified environment with 5% CO2 and 37° C. The medium was refreshed every 2 days. KFS cells (2×10^4 cells/well) were seeded in 96-well plates overnight. KFS cells were exposed to different concentrations of a test drug in 100 μL of medium (for example, combination of 10 Chinese medicine ingredients). After 24 hours treatment, 10 μL of 5 mg/mL MTT (3-(4,5-dimethylthiazol-2-yl)-2,5-diphenyltetrazolium bromide) was added to each well. After incubation for 4 hours, cells were washed twice with 1×PBS. Next, 200 μL of dimethyl sulfoxide (DMSO) was added to each well. An absorbance value at 570 nm was determined for each well by using 650 nm as a reference wavelength. Compared with a control group (untreated with reagents), the absorbance may be correlated with the percentage of active cells. The cell metabolic activity rate is calculated as follows: Cell metabolic activity (%)=OD (treatment)/OD (control)×100%.

As to `COc1cc(/C=C/C(=O)CC(=O)/C=C/c2ccc(O)c(OC)c2)ccc1O` [Curcumin], the “growth of keloid fibroblasts” value is recorded as “inhibit the growth”.
As for `Oc1ccc(C=Cc2cc(O)cc(O)c2)cc1` [Resveratrol], the “growth of keloid fibroblasts” value is “inhibit the growth”.
